Source: publication PMC12198292, “Advancing in vitro assessment of iodide uptake inhibition: integrating a novel biotransformation pretreatment step” (Archives of Toxicology, 2025)
≈ marks a conversion by molar mass, not a printed value. Where two headings read alike, the source gives them in different places.

Legend:
human NIS [1] = target: T1, human NIS (Homo sapiens, UniProt Q92911); experiment: NIS-inhibition assay (iodide uptake, Sandell–Kolthoff reaction) on HEK293T NIS C; type: cell-based; design: host or cells: HEK293T (lentiviral transduction, puromycin selection, GFP sorting; lines NIS 02 and NIS C); conditions: mean ± SD, ≥ 3 independent experiments; 2 h exposure; SK reaction
T1 sequence (Q92911 1-643): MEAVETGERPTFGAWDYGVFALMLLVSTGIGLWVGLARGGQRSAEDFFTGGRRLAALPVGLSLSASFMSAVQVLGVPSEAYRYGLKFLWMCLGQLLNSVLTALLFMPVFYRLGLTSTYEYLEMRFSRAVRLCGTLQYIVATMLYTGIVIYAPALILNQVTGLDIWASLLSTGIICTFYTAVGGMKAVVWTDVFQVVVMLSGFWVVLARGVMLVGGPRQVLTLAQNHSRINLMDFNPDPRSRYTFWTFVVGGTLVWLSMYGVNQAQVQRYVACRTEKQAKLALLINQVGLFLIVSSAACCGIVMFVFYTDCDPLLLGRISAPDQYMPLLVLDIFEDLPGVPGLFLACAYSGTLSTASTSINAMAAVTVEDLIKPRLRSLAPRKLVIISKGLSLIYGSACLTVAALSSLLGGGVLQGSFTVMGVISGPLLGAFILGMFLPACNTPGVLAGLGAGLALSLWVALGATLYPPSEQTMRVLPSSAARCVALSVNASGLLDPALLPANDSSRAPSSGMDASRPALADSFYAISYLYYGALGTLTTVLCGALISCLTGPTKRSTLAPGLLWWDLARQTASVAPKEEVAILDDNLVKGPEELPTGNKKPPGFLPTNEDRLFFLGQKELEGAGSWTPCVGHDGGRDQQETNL

NIS = target: T2, NIS (Rattus norvegicus, UniProt Q63008); experiment: NIS-inhibition assay (iodide uptake, Sandell–Kolthoff reaction) on FRTL-5; type: cell-based; conditions: mean ± SD, ≥ 3 independent experiments; 2 h exposure; SK reaction
T2 construct: the endogenously NIS-expressing rat FRTL-5 cell line; host or cells: FRTL-5 (CVCL_0265)
T2 sequence (Q63008 1-618): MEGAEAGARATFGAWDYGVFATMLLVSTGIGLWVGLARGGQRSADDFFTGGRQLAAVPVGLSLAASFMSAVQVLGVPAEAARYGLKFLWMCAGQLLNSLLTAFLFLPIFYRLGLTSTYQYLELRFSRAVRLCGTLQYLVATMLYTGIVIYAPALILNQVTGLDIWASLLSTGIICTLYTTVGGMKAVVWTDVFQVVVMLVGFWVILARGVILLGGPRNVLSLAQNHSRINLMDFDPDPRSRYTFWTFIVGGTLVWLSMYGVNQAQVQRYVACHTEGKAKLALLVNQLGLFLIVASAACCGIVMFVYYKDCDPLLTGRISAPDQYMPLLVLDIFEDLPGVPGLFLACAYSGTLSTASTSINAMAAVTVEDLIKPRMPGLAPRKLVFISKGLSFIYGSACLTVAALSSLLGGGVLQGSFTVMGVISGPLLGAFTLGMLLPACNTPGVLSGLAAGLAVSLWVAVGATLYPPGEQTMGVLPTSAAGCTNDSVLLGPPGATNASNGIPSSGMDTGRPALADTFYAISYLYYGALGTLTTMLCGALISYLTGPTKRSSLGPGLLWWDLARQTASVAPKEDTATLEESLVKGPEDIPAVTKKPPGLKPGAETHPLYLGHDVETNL

human NIS [2] = target: T1, human NIS; experiment: NIS-inhibition assay (iodide uptake, Sandell–Kolthoff reaction) on HEK293T NIS 02; type: cell-based; design: host or cells: HEK293T (lentiviral transduction, puromycin selection, GFP sorting; lines NIS 02 and NIS C); conditions: mean ± SD, ≥ 3 independent experiments, 2 h exposure, SK reaction; for IC50: read-out: NIS IC50 HEK293T NIS 02
HEK293T NIS C cells = experiment: Neutral red uptake viability assay, HEK293T NIS C; conditions: mean±SD, 2 h exposure
FRTL-5 cells = experiment: Neutral red uptake viability assay, FRTL-5; conditions: mean±SD, 2 h exposure
[3] = design: method as in PubChem https://pubchem.ncbi.nlm.nih.gov/; conditions: ref PubChem https://pubchem.ncbi.nlm.nih.gov/; cited from earlier work
[4] = ref PubChem https://pubchem.ncbi.nlm.nih.gov/; cited from earlier work
human NIS [5] = target: T1, human NIS; design: host or cells: HEK293T (lentiviral transduction, puromycin selection, GFP sorting; lines NIS 02 and NIS C); conditions: hNIS-HEK293T-EPA, RAIU, cited from earlier work
[6] = design: method as in PubChem https://pubchem.ncbi.nlm.nih.gov/; conditions: ref PubChem https://pubchem.ncbi.nlm.nih.gov/; cited from earlier work; remark: listed apart in the source
human NIS [7] = target: T1, human NIS; experiment: Biotransformation (BTS, rat S9)-augmented NIS-inhibition assay, HEK293T NIS02; conditions: for IC20: three independent experiments; for effect of fully active BTS (W/S9, W/cof) on NIS inhibition versus control setups: two-way ANOVA, p < 0.05
[8] = read-out: NIS inhibition IC20 D S9, W/cof, 5 h preincubation with denatured S9 and cofactors
[9] = read-out: NIS inhibition IC20 W/O S9, W/cof, 5 h preincubation without S9 fraction, with all cofactors

NIS IC50 FRTL-5 (NIS)	NIS IC50 HEK293T NIS 02 (human NIS [2])	SMILES	NIS IC50 HEK293T NIS C (human NIS [1])	NR IC20 HEK293T NISC (HEK293T NIS C cells)	NR IC20 FRTL-5 (FRTL-5 cells)	Henry‘s law [3]	solubility in water [4] [µg/mL]	log Kow [6]	other results
n.e and n.e./ n.e.	n.e and n.e. / n.e.	NC(=O)N1c2ccccc2C=Cc2ccccc21 [CBZ, Carbamazepine, reference compound]	n.e and n.e./ n.e.	n.e./ n.e.	–	1.1x10^-10 atm- m^3/mol	18 (≈ 76.2 µM)	–	Data from literature NIS IC50 (human NIS [5]; ref US-EPA, 2024): n.e.; Data from literature NIS IC50 (human NIS [5]; ref Wang et al., 2019): n.e.
–	–	CC1=C[C@H]2O[C@@H]3[C@H](O)C[C@](C)([C@@]2(CO)[C@H](O)C1=O)[C@]31CO1 [DON, Deoxynivalenol]	–	–	–	2.0x10^-14 atm- m^3/mol	55000 (≈ 186000 µM)	-0.71	–
n.e and n.e. / n.e.	n.e and n.e. / n.e.	CCC(Cc1c(I)cc(I)c(N)c1I)C(=O)O (stereo not shown) [IOP, Iopanoic acid, reference compound]	n.e and n.e. / n.e.	n.e. / n.e.	n.e. / n.e.	–	348.3 (≈ 610 µM)	–	–
–	–	COc1ccc(C(c2ccc(OC)cc2)C(Cl)(Cl)Cl)cc1 [MET, Methoxychlor, reference compound]	n.e and n.e./ n.e.	n.e./ n.e.	218±4.3 / n.e.	2.03x10^-7 atm- m^3/mol	0.04 (≈ 0.116 µM)	5.08	IC20 (human NIS [7]; [8]): 20.7 ± 19.5 µM; IC20 (human NIS [7]; [9]): > 500 µM; effect of fully active BTS (W/S9, W/cof) on NIS inhibition versus control setups (human NIS [7]): no biotransformation-related effect changes were detected; IC50 (NIS): 218 ± 4.3 µM; IC50 (human NIS [2]): 11 ± 8.7 µM; IC20 (human NIS [5]; ref US-EPA, 2024, read-out: Data from literature NIS IC20): 12.6 µM; Data from literature NIS IC50 (human NIS [5]; ref Wang et al., 2018): n.e.
n.e and n.e. / n.e.	n.e and n.e. / n.e.	CCCc1cc(=O)[nH]c(=S)[nH]1 [PTU, 6-Propylthiouracil, reference compound]	n.e and n.e. / n.e.	n.e. / n.e.	n.e. / n.e.	1.1x10^-9 atm- m^3/mol	–	–	Data from literature NIS IC50 (human NIS [5]; ref Buckalew et al., 2020): n.e.; Data from literature NIS IC50 (human NIS [5]; ref Hallinger et al., 2017): n.e.
–	–	Oc1cccc(O)c1 [RSC, Resorcinol]	n.e and n.e./ n.e.	n.e./ n.e.	4709.5 ±562 / n.e.	9.9x10^-11 atm- m^3/mol	–	0.8	effect of fully active BTS (W/S9, W/cof) on NIS inhibition versus control setups (human NIS [7]): no significant differences were observed; IC50 (NIS): 4710 ± 562 µM; IC50 (human NIS [2]): 4060 ± 2050 µM; Data from literature NIS IC50 (human NIS [5]; ref Wang et al., 2019): n.e.
n.e and n.e. / n.e.	n.e and n.e. / n.e.	O=C(O)c1ccccc1O [SA, Salicylic acid]	n.e and n.e. / n.e.	n.e. / n.e.	n.e. / n.e.	–	–	2.26	–
n.e and n.e. / n.e.	n.e and n.e. / n.e.	Cc1cc(NS(=O)(=O)c2ccc(N)cc2)no1 [SMX, Sulfamethoxazole, reference compound]	n.e and n.e. / n.e.	–	–	–	–	–	–
–	–	N[C@@H](Cc1cc(I)c(Oc2ccc(O)c(I)c2)c(I)c1)C(=O)O [T3, 3,3′,5-Triiodo-L-thyronine]	–	n.e. / n.e.	n.e. / n.e.	–	–	0.93	–
n.e and n.e. / n.e.	n.e and n.e. / n.e.	NC(Cc1cc(I)c(Oc2cc(I)c(O)c(I)c2)c(I)c1)C(=O)O [T4, 3,3′,5,5″-Tetraiodo-L-thyronine]	n.e and n.e. / n.e.	n.e. / n.e.	n.e. / n.e.	–	0.162 (≈ 0.209 µM)	0.16	–
–	–	O=P(Oc1ccccc1)(Oc1ccccc1)Oc1ccccc1 [TPP, Triphenyl phosphate]	n.e and n.e. / n.e.	n.e. / n.e.	92.6 ±24.1 / n.e.	3.3x10^-6 atm- m^3/mol	–	4.6	IC20 (human NIS [7]; [8]): 9.97 ± 3.36 µM; IC20 (human NIS [7]; read-out: NIS inhibition IC20 SM, standard method without preincubation, run in parallel): 7.93 ± 4.47 µM; IC20 (human NIS [7]; [9]): 17.5 ± 7.2 µM; effect of fully active BTS (W/S9, W/cof) on NIS inhibition versus control setups (human NIS [7]): no biotransformation-related effect changes were detected; IC50 (NIS): 92.6 ± 24.1 µM; IC50 (human NIS [2]): 42.8 ± 18.9 µM; IC50 (human NIS [5]; read-out: Data from literature NIS IC50, ref US-EPA, 2024): 50 µM

SMILES	NIS IC50 FRTL-5 (NIS)	NIS IC50 HEK293T NIS 02 (human NIS [2])	NIS IC50 HEK293T NIS C (human NIS [1])	NR IC20 HEK293T NISC (HEK293T NIS C cells)	NR IC20 FRTL-5 (FRTL-5 cells)	Henry‘s law [3]	solubility in water [4] [µg/mL]	log Kow [6]	other results
CC1(C)S[C@@H]2[C@H](NC(=O)[C@H](N)c3ccccc3)C(=O)N2[C@H]1C(=O)O [AMP, Ampicillin, reference compound]	n.e and n.e./ n.e.	n.e and n.e./ n.e.	n.e and n.e./ n.e.	n.e./ n.e.	n.e./ n.e.	–	–	–	–
O=C(c1ccc(O)cc1O)c1ccc(O)cc1O [BP2, 2,2′-4,4′-Tetrahydroxy Benzophenone]	n.e and n.e. / n.e.	n.e and n.e./ n.e.	n.e and n.e./ n.e.	n.e./ n.e.	n.e. / n.e.	3.6x10^-6 atm- m^3/mol	8821 (≈ 35800 µM)	–	–
S=C1NCCN1 [ETU, Ethylene thiourea]	n.e and n.e./ n.e.	n.e and n.e./ n.e.	n.e and n.e./ n.e.	n.e./ n.e.	n.e./ n.e.	1.4x10^-11 atm- m^3/mol	–	-0.66	–
